“Also recorded” adds a separate entry of the source. Like-named read-outs stand apart in the source and are kept apart here.
Assays:
EP2 receptor [1] = target: T1, EP2 receptor (Homo sapiens, UniProt P35408); assay: [3H]PGE2 binding (competition) assay, membranes of COS-M6 cells transfected with EP2; set-up: full-length human EP2 cDNA was isolated; This 1.958 kb cDNA clone encodes a 488-amino acid protein; expressed in transfected cells; host or cells: COS-M6 cells (pcDNAIamp plasmid, DEAE-dextran), 100,000 x g membrane fraction; details: for rank order of potency for prostaglandins and related analogs / activity at EP2 in words: competition with [3H]PGE2
Description: The cells were maintained in culture for 72 h, then harvested and membranes prepared by differential centrifugation (1000×g for 10 min, then 100,000×g for 30 min) following lysis of the cells by nitrogen cavitation. […] Incubations were conducted for 45 min at 30° C. prior to separation of the bound and free radioligand by rapid filtration through Whatman GF/B filters presoaked at 4° C. in washing buffer ([…] MES/KOH (pH 6.0) containing 0.01% bovine serum albumin).

EP2 receptor [2] = target: T1, EP2 receptor; assay: PGE2-induced CFTR-mediated Cl- current in Xenopus oocytes injected with EP2 plus CFTR cDNA; type: cell-based
Description: Oocytes were taken from adult females of Xenopus laevis using standard surgical procedure (Colman, A., 1984 In: Transcription and Translation--A Practical Approach, IRL Press). To remove follicle cells, oocytes were treated for 2-3 h with freshly made collagenase (2 mg/ml, type 2, Worthington Biochemical Corp., Freehold, N.J.) in Ca^2+ -free ND96 solution (ND96 in mM: NaCl 96, KCl 2, MgCl2 1, HEPES 5, Na-pyruvate 2.5, theophylline 0.5 gentamicin […], +1.8 CaCl2, pH 7.6). Defolliculated stage 5-6 oocytes were selected and maintained in ND96 solution. Oocyte nuclei were injected with 1.6 ng of pcDNAIamp-EP2 plus 2.5 ng of pcDNAIamp-CFTR and then incubated at 18° C. for 48 h before challenge with agonist. CFTR (cystic fibrosis transmembrane regulator, a cAMP dependent Cl^- channel) was co-expressed with EP2 receptor in these oocytes and served as a reporter of changes in intracellular cAMP levels. Functional activity was determined by measurement of PGE2-induced CFTR-mediated Cl^- current. An oocyte was placed in a 0.5 ml perfusion chamber and voltage clamped at -60 mV (with microelectrodes of 0.5-2.0 MW resistance filled with 3M KCl) using a Turbo TEC01C amplifier (NP1 Instruments, Germany). Ligand-containing solution was perfused and the current response was recorded.

[3] = test system: control oocytes (CFTR alone or CFTR plus antisense EP2 cDNA injected); assay: CFTR-mediated Cl- current in control oocytes (CFTR alone or CFTR plus antisense EP2 cDNA injected); type: cell-based, Xenopus laevis
IP receptor = details: cited from earlier work
EP1 receptor = details: cited from earlier work
EP2 receptor [4] = details: cited from earlier work
EP3 receptor = details: cited from earlier work
EP2 receptor [5] = details: cited from earlier work; remark: listed apart in the source
TP receptor = details: cited from earlier work
[6] = CFTR alone or CFTR plus antisense EP2 cDNA injected

T1 sequence (P35408 whole entry): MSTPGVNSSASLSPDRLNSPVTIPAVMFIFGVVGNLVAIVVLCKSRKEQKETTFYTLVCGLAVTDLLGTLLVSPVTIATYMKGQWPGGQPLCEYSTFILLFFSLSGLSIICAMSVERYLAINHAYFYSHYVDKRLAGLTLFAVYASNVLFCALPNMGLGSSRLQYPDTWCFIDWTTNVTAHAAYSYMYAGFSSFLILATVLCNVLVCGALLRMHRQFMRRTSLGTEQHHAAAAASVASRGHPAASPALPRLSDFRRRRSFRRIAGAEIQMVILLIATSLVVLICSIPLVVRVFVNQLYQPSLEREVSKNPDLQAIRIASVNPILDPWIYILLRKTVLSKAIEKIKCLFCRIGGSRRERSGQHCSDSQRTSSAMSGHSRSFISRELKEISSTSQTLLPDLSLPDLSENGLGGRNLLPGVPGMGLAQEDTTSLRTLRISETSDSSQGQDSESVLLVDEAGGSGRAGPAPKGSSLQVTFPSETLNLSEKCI

## O=C(O)CCCC=CCC1C(=O)CC(O)C1C=CC(O)CCc1ccccc1 (stereo not drawn) [phenyl-trinor PGE2, 17-pheyyl-trinor PGE2]
EP2 receptor [1]
  rank order of potency for prostaglandins and related analogs: PGE2=PGE1>>phenyl-trinor PGE2>iloprost>PGF2α >PGD2≈U46619

## CCCCC(C)(O)C/C=C/[C@H]1[C@H](O)CC(=O)[C@@H]1CCCCCCC(=O)OC (mixture of isomers) [Misoprostol]
EP2 receptor [1]; read-out: IC50
  IC50: 6.03 µM

## CCCCC[C@H](O)/C=C/[C@H]1C(=O)C[C@H](O)[C@@H]1C/C=C\CCCC(=O)O [PGD2]
EP2 receptor [1]
  rank order of potency for prostaglandins and related analogs: PGE2=PGE1>>phenyl-trinor PGE2>iloprost>PGF2α >PGD2≈U46619

## CCCCC[C@H](O)/C=C/[C@@H]1[C@@H](C/C=C\CCCC(=O)O)[C@@H](O)C[C@H]1O [PGF2α]
EP2 receptor [2]; 1 μM PGF2α
  current response compared with PGE2: much smaller
[3]; [6]
  response of control oocytes: absent
EP2 receptor [1]
  rank order of potency for prostaglandins and related analogs: PGE2=PGE1>>phenyl-trinor PGE2>iloprost>PGF2α >PGD2≈U46619

## CC#CCC(C)[C@H](O)/C=C/[C@@H]1[C@H]2C/C(=C/CCCC(=O)O)C[C@H]2C[C@H]1O (stereo partly drawn) [iloprost]
IP receptor
  potency at the IP receptor, stable prostacyclin analog: comparable potency
EP2 receptor [1]
  rank order of potency for prostaglandins and related analogs: PGE2=PGE1>>phenyl-trinor PGE2>iloprost>PGF2α >PGD2≈U46619

## CCCC1([C@H](O)C/C=C/[C@H]2[C@H](O)CC(=O)[C@@H]2CCCCCCC(=O)OC)CCC1 [butaprost]
EP2 receptor [1]
  activity at EP2 in words: relatively inactive
EP2 receptor [1]; read-out: IC50
  IC50: 30 µM

## CC(C)Cn1c(=O)n(C)c(=O)c2[nH]cnc21 [IBMX]
[3]; CFTR + anti-sense hEP2 cDNA injected oocytes
  CFTR-mediated Cl- current: IBMX-induced, CFTR-mediated Cl^- current

## CCCCC[C@H](O)/C=C/[C@H]1[C@H](O)CC(=O)[C@@H]1C/C=C\CCCC(=O)O [PGE2, prostaglandin E2]
EP2 receptor [2]; perfusion of 1 nM, voltage clamp -60 mV, 1.6 ng EP2 plus 2.5 ng CFTR cDNA
  current response: inward cAMP-dependent Cl^- current; also recorded: prominent current responses
[3]; 1 μM, CFTR + anti-sense hEP2 cDNA
  response of control oocytes: lack of response
[3]; 3 μM, CFTR + anti-sense hEP2 cDNA
  response of control oocytes: lack of response
[3]; [6]
  response of control oocytes: absent
EP1 receptor
  affinity: high affinity
EP2 receptor [4]
  affinity: high affinity
EP3 receptor
  affinity: high affinity
EP2 receptor [5]
  intracellular cAMP levels: increase in intracellular cAMP levels
EP2 receptor [1]
  rank order of potency for prostaglandins and related analogs: PGE2=PGE1>>phenyl-trinor PGE2>iloprost>PGF2α >PGD2≈U46619

## CCCCC[C@H](O)/C=C/[C@H]1[C@H](O)CC(=O)[C@@H]1CCCCCCC(=O)O [PGE1]
EP2 receptor [1]
  rank order of potency for prostaglandins and related analogs: PGE2=PGE1>>phenyl-trinor PGE2>iloprost>PGF2α >PGD2≈U46619
EP2 receptor [1]; read-out: IC50 values in competition assays
  IC50: 0.001 µM

## CC(=O)NNC(=O)N1Cc2ccccc2Oc2ccc(Cl)cc21 [SC19220]
EP2 receptor [1]
  activity at EP2 in words: essentially inactive

## CCCCC[C@H](O)/C=C/[C@@H]1[C@@H](C/C=C\CCCC(=O)O)[C@H]2CO[C@@H]1C2 [U46619]
TP receptor
  potency at the TP receptor, stable thromboxane analog: comparable potency
EP2 receptor [1]
  rank order of potency for prostaglandins and related analogs: PGE2=PGE1>>phenyl-trinor PGE2>iloprost>PGF2α >PGD2≈U46619

## O=C(O)CCCCCC[C@H]1C(=O)CC[C@@H]1/C=C/[C@@H](O)COc1ccccc1 [MB28767]
EP2 receptor [1]; EP2 versus EP3
  potency at EP2 relative to EP3 (fold less potent at EP2 than EP3): approximately 30 fold

## CC(C)Oc1ccc2c(=O)c3cc(C(=O)O)ccc3oc2c1 [AH6809]
EP2 receptor [1]
  activity at EP2 in words: essentially inactive
